PMC10709440, “High-throughput ligand profile characterization in novel cell lines expressing seven heterologous insect olfactory receptors for the detection of volatile plant biomarkers” (Scientific Reports, 2023)
Read-outs that look alike come from different tables or passages of the source.

Assays:
Drosophila OR10a = target: T1, Drosophila OR10a (Drosophila melanogaster, UniProt Q9VYZ1); test: Calcium ion fluorescence (GCaMP6) assay, OR10a stable HEK293 cell line; assay type: cell-based; set-up: key to DF norm AVERAGE OR10a: VOC ∆F divided by the plate's mean ∆F response to 50 µM VUAA1
T1 construct: expressed in transfected cells
T1 sequence (Q9VYZ1 1-406): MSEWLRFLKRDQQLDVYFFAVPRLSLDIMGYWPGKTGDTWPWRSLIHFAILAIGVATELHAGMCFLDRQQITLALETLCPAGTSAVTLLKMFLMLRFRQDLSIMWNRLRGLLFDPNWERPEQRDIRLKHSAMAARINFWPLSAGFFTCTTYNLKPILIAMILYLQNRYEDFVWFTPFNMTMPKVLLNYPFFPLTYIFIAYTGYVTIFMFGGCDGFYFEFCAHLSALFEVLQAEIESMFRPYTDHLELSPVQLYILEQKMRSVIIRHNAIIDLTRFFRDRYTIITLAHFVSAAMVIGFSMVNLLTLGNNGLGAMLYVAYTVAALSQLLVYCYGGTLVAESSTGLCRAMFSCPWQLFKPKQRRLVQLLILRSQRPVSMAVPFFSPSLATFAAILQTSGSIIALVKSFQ
T1 sequence (Q9VNB5 1-486 partner): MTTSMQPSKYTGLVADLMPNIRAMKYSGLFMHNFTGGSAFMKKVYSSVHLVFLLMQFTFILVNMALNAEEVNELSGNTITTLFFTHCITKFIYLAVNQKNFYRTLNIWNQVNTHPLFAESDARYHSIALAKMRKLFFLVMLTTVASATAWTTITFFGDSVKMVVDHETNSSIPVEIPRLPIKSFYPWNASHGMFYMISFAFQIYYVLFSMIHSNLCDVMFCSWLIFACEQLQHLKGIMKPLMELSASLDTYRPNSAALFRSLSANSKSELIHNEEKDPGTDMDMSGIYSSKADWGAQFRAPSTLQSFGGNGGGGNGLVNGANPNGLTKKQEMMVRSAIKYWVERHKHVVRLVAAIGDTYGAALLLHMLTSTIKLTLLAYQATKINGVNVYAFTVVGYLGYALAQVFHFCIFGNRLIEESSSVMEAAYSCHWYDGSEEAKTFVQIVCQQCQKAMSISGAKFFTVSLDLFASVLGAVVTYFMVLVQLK
Method in brief: (§1)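 Responses are VUAA1-normalized ΔF: each VOC-evoked calcium signal, (FMAX−F0)/F0 over 30 s after injection, divided by the same line's mean 50 µM VUAA1 response. Cells were doxycycline-induced HEK293 with GCaMP6 and the cognate Drosophila OR, in HEPES buffer pH 7.3; ligands tested 0.01–100 μM.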

Drosophila OR71a = target: T2, Drosophila OR71a (Drosophila melanogaster, UniProt Q9VUK5); test: Calcium ion fluorescence (GCaMP6) assay, OR71a stable HEK293 cell line; assay type: cell-based; set-up: key to DF norm AVERAGE OR71a: VOC ∆F divided by the plate's mean ∆F response to 50 µM VUAA1; conditions: for activation at 1 µM / activation at 10 µM / activation at 100 µM: HEK293, read-out: OR71a response (VUAA1-normalized response); for Average response: VUAA1-normalized response, mean of biological replicates
T2 construct: expressed in transfected cells
T2 sequence (Q9VUK5 1-378): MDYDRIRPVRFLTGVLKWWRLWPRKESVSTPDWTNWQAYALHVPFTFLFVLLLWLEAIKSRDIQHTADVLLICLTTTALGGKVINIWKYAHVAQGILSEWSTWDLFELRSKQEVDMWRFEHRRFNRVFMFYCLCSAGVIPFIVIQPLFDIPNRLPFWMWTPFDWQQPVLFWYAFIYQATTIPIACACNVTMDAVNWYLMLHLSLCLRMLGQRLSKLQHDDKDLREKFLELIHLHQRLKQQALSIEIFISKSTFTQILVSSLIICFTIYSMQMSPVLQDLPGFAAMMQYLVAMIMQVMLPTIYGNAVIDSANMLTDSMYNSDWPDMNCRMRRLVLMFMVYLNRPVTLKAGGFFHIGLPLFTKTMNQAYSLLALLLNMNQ
T2 sequence (Q9VNB5 1-486 partner): T1 sequence (Q9VNB5 1-486 partner)
Method in brief: as §1

[1] = HEK293, 1 μM VOC, 50 μM VUAA1 = 1, responses not exceeding 0.05 considered 0, read-out: OR10a Average response (VUAA1-normalized)
[2] = HEK293, 10 μM VOC, 50 μM VUAA1 = 1, responses not exceeding 0.05 considered 0, read-out: OR10a Average response (VUAA1-normalized)
[3] = HEK293, 100 μM VOC, 50 μM VUAA1 = 1, responses not exceeding 0.05 considered 0, read-out: OR10a Average response (VUAA1-normalized)
[4] = HEK293, read-out: OR10a response (VUAA1-normalized response), VOC concentration 1 μM
[5] = HEK293, read-out: OR10a response (VUAA1-normalized response), VOC concentration 10 μM
[6] = HEK293, read-out: OR10a response (VUAA1-normalized response), VOC concentration 100 μM
[7] = concentration 1, normalized fluorescence change, values below 0.05 threshold given as 0
[8] = concentration 10, normalized fluorescence change, values below 0.05 threshold given as 0
[9] = concentration 100, normalized fluorescence change, values below 0.05 threshold given as 0
[10] = ligand concentration 1 (unit not given), threshold 0.05, below shown as 0
[11] = ligand concentration 10 (unit not given), threshold 0.05, below shown as 0
[12] = ligand concentration 100 (unit not given), threshold 0.05, below shown as 0
[13] = HEK293, read-out: OR10a Average response (VUAA1-normalized)
[14] = HEK293, read-out: OR10a response (VUAA1-normalized response)

Compound	activation at 1 µM (Drosophila OR10a; [1]) [%]	activation at 10 µM (Drosophila OR10a; [2]) [%]	activation at 100 µM (Drosophila OR10a; [3]) [%]	activation at 1 µM (Drosophila OR10a; [4]) [%]	activation at 10 µM (Drosophila OR10a; [5]) [%]	activation at 100 µM (Drosophila OR10a; [6]) [%]	activation at 1 µM (Drosophila OR71a) [%]	activation at 10 µM (Drosophila OR71a) [%]	activation at 100 µM (Drosophila OR71a) [%]	Average response (Drosophila OR71a; OR71a cell line, cc. 1 µM)	Average response (Drosophila OR71a; OR71a cell line, cc. 10 µM)	Average response (Drosophila OR71a; OR71a cell line, cc. 100 µM)	DF norm AVERAGE OR71a (Drosophila OR71a; [7])	DF norm AVERAGE OR71a (Drosophila OR71a; [8])	DF norm AVERAGE OR10a (Drosophila OR10a; [10])	DF norm AVERAGE OR10a (Drosophila OR10a; [11])	DF norm AVERAGE OR10a (Drosophila OR10a; [12])	DF norm AVERAGE OR71a (Drosophila OR71a; [10])	DF norm AVERAGE OR71a (Drosophila OR71a; [11])	DF norm AVERAGE OR71a (Drosophila OR71a; [12])	also measured
CCCCCCCO [1-heptanol]	1.56	6.57	0	0	6.57	0	0	0	0	0.00	0.00	0.00	0	0							DF norm AVERAGE OR71a (Drosophila OR71a; [9]): 0
CCCCCC(=O)CC [3-octanone]	2	10	2.65	0	10	0	0	0	0	0.00	0.00	0.00	0	0							DF norm AVERAGE OR71a (Drosophila OR71a; [9]): 0
O=Cc1ccccc1 [benzaldehyde]	0	4	17	0	0	17	0	0	0	0.03	0.00	0.00			0	0	0.1697	0	0	0	
Cc1ccccc1C [o-xylene]										0.00	0.00	0.00			0	0	0	0	0	0	activation at 1 µM (Drosophila OR10a; HEK293, read-out: OR10a Average response (VUAA1-normalized), 1 μM VOC, 50 μM VUAA1 = 1, responses not exceeding 0.05 considered 0): 0%; activation at 10 µM (Drosophila OR10a; HEK293, read-out: OR10a Average response (VUAA1-normalized), 10 μM VOC, 50 μM VUAA1 = 1, responses not exceeding 0.05 considered 0): 0%; activation at 100 µM (Drosophila OR10a; HEK293, read-out: OR10a Average response (VUAA1-normalized), 100 μM VOC, 50 μM VUAA1 = 1, responses not exceeding 0.05 considered 0): 0%; OR10a response (VUAA1-normalized) at 1 μM (Drosophila OR10a; OR10a cell line, VOC concentration 1 μM): 0.00; OR10a response (VUAA1-normalized) at 10 μM (Drosophila OR10a; OR10a cell line, VOC concentration 10 μM): 0.00; OR10a response (VUAA1-normalized) at 100 μM (Drosophila OR10a; OR10a cell line, VOC concentration 100 μM): 0.00; OR71a response (VUAA1-normalized) at 1 μM (Drosophila OR71a; OR71a cell line, VOC concentration 1 μM): 0.00; OR71a response (VUAA1-normalized) at 10 μM (Drosophila OR71a; OR71a cell line, VOC concentration 10 μM): 0.00; OR71a response (VUAA1-normalized) at 100 μM (Drosophila OR71a; OR71a cell line, VOC concentration 100 μM): 0.00
C=CC(O)CCCCC (stereo not shown) [1-octen-3-ol]	0	2.34	4.52	0	0	0	0	0	5.55	0.00	0.0223	0.0555	0	0							DF norm AVERAGE OR10a (Drosophila OR10a): 0; DF norm AVERAGE OR71a (Drosophila OR71a; [9]): 0.05555
CC(C)=CCC/C(C)=C/CC/C(C)=C/CO [e,e-farnesol]										0.00	0.0452	0.00			0	0.06329	0	0	0	0	OR10a Average response (VUAA1-normalized) (Drosophila OR10a; 1 μM VOC, 50 μM VUAA1 = 1, responses not exceeding 0.05 considered 0): 0.034; OR10a Average response (VUAA1-normalized) (Drosophila OR10a; 10 μM VOC, 50 μM VUAA1 = 1, responses not exceeding 0.05 considered 0): 0.0633; OR10a Average response (VUAA1-normalized) (Drosophila OR10a; 100 μM VOC, 50 μM VUAA1 = 1, responses not exceeding 0.05 considered 0): 0.0174; OR10a response (VUAA1-normalized response) (Drosophila OR10a; VOC concentration 1 μM): 0.00; OR10a response (VUAA1-normalized response) (Drosophila OR10a; VOC concentration 10 μM): 0.0633; OR10a response (VUAA1-normalized response) (Drosophila OR10a; VOC concentration 100 μM): 0.00; OR71a response (VUAA1-normalized response) (Drosophila OR71a; VOC concentration 1 μM): 0.00; OR71a response (VUAA1-normalized response) (Drosophila OR71a; VOC concentration 10 μM): 0.00; OR71a response (VUAA1-normalized response) (Drosophila OR71a; VOC concentration 100 μM): 0.00
CCc1ccccc1 [ethylbenzene]							0	0	0	0.023	0.0127	0.0277			0.1713	0	0.05742	0	0	0	activation at 1 µM (Drosophila OR10a; [13]): 17%; activation at 10 µM (Drosophila OR10a; [13]): 3.3%; activation at 100 µM (Drosophila OR10a; [13]): 6%; activation at 1 µM (Drosophila OR10a; [14]): 17%; activation at 10 µM (Drosophila OR10a; [14]): 0%; activation at 100 µM (Drosophila OR10a; [14]): 6%
